Data on four compounds can be found in US20160083397A1, “PARTHENOLIDE DERIVATIVES AND THEIR MODULATION OF PROCESSES CONTROLLED BY REGULATED TRANSLATION” (THE BOARD OF TRUSTEES OF THE UNIVERSITY OF ARKANSAS, priority 2013, published 2016).

The test system of data set [1] is neuroblastoma cell line SHSY5Y. Nature of the data set: Neurosphere formation, SHSY5Y. The class given is cell-based. The following applies: lowest dose tested 0.5 μM. The protocol: (§1) The activity of the three test compounds to inhibit neurosphere formation was also tested in a neuroblastoma cell line SHSY5Y and a glioblastomoa cell line U87. All three compounds attenuated neurosphere formation in both cell lines, to varying degrees of efficacy (FIG. 2A,B). […] None of the compounds affected cell viability.

For data set [2], the system named is glioblastomoa cell line U87. Nature of the data set: Neurosphere formation, U87. The following applies: lowest dose tested 0.5 μM. The data set is classed as cell-based. As for the experimental part:
as §1

For data set [3], the system named is MCF-7 cells. Nature of the data set: Mammosphere formation, MCF-7. The settings on record: compound present first 3 days, scored day 14 (P2), 50, 5 and 0.5 μM. The class given is cell-based. The source says: Mammosphere culture growth presents a useful indicator of the presence of breast cancer cells with stem cell-like properties. Breast cancer cell lines grown as mammospheres (under non-adherent plating conditions) recapitulate the three-dimensional organization of tumors. Importantly, assessment of stem cell self-renewal capacity can be achieved through dispersion of mammospheres to single cells and subsequent limited dilution replating. To determine whether PNR-5-46, PNR-5-41, or JVM-20 inhibited mammosphere formation in this system, […], and then cultured in the absence of the test compound. At day 7, mammospheres were collected, dispersed to single cells and replated at limiting dilution (P1). Spheroids were scored at day 14 (P2). Mammosphere forming units (MFUs) are defined as spheroid bodies >100 μm (MCF-7 cells) or >65 μm (MDA MB231 cells) diameter after 7 (P1) or 14 (P2) days growth in non-adherent culture.

The subject of data set [4] is Xenopus oocytes. Nature of the data set: Xenopus oocyte maturation assay. The data set is classed as cell-based. The settings on record: for Xenopus Oocyte Maturation Assay, With Progesterone: test compound 100 μM, progesterone 2 μg/mL, inhibitor = slowed rate of progesterone-dependent GVBD by 20% or more. The source says: An in vivo Xenopus oocyte maturation assay was used to screen the compounds for their ability to modulate the activity of cell cycle control proteins, mRNA translational control proteins, and/or proteins involved in signaling pathways. In this assay, oocyte maturation (or cell cycle progression) is monitored phenotypically using an image capture system. Oocyte maturation is correlated with the appearance of a white spot at the animal pole of the darkly pigmented animal hemisphere of the oocyte. The white spot appears because the germinal vesicle (i.e., the large nucleus of the oocyte) migrates to the animal pole prior to meiotic germinal vesicle breakdown (GVBD).
Immature stage VI Xenopus oocytes were transferred to wells of a flat bottom 96-well plate containing about 178 μL of L15 culture media. The oocytes were transferred using wide mouth 200 μL pipette tips with minimal transfer of culture medium (e.g., about 20 μL). Generally, the oocytes oriented with the pigmented animal hemisphere facing up due to the higher density of the yolk-containing vegetal hemisphere. Incorrectly orientated oocytes were gently manipulated using a drawn-out capillary tube to rotate them into the correct orientation.
Forty-four test compounds were dissolved in DMSO to make 100× stock solutions. The test compounds were added to the appropriate wells at a final concentration of 100 μM (and 1% DMSO). Control oocytes were exposed to 1% DMSO only (generally the first and last wells of a plate contained the untreated, control oocytes). Sixteen hours later, progesterone was added to each well to stimulate progesterone-dependent oocyte maturation. For this, 2 μL of 1000× stock solution (2 mg/mL in ethanol) was added to the appropriate wells to yield a final concentration of 2 μg/mL. The rate of maturation in the control oocytes (i.e., those in the first and last wells) served as an intra-assay control for time taken for progesterone addition across the multi-well plate.
The 96-well plate was imaged from above (i.e., top-down) using a 36-megapixel Nikon D800 SLR camera with an AF Micro Nikkor 60 mm, f/2.8 lens, mounted on a dedicated copy stand (with adjustable flanking light sources). The plate was imaged prior to and after addition of progesterone (i.e., images were taken at regular intervals over a period of 7 hours). The high resolution images were digitally zoomed after capture to analyze the maturation status of oocytes in individual wells of the plate. Test compounds that slowed the rate of progesterone-dependent GVBD by 20% or more were classified as inhibitors (assessed relative to the time 50% of the population of control, vehicle treated oocytes had undergone GVBD (GVBD50)).
To determine whether the test compounds were able to activate oocyte maturation in a progesterone-independent manner, oocytes were incubated in the presence of the test compound (dissolved in DMSO) or DMSO only. The oocytes were imaged at regular intervals for the evidence of GVBD, or subsets of oocytes were removed at predetermined times and the activation status of key cell cycle control proteins (e.g., pMAP kinase, pCcd2, etc.) was analyzed by Western blotting. For example, activation of pMAP kinase is associated with increased phosphorylation whereas activation of pCdc2 is associated with decreased phosphorylation. Compounds were classified as an activator if they were able to induce GVBD in the absence of added progesterone. Further, compounds were classified as accelerators if they accelerated the rate of progesterone-stimulated GVBD, but were unable to induce GVBD in the absence of progesterone. The criteria for test compounds to be considered accelerators is that they must increase the rate of progesterone-dependent GVBD by 20% or more at one dose (assessed relative to the time 50% of the population of control, vehicle treated oocytes had undergone GVBD (GVBD50)).

What is called melting point is the temperature of the solid-liquid transition. The compound `C[C@@]12CCC=C(CO)C3C[C@H]4/C(=C\c5ccccc5)C(=O)O[C@@H]4[C@@]31O2` (stereo partly shown) gave a melting point of 115 to 117 °C. Turning to “13-(4-aminophenyl)parthenolide [PNR-5-41]”, the “neurosphere formation / stem cell self-renewal” value in data set [1] and in data set [2] was “Significant inhibition” each time. The “mammosphere formation relative to DMSO-treated control cells” value in data set [3] was “did not”. Further, the “Xenopus Oocyte Maturation Assay, With Progesterone” value in data set [4] is “Inhibitor”.

With `C/C1=C\CC[C@@]2(C)O[C@H]2[C@H]2OC(=O)[C@@H](CNc3nc4ccccc4[nH]3)[C@@H]2CC1` [JVM-9, 13-(2-aminobenzimidazole)parthenolide], in data set [4] (no progesterone, activator = able to induce GVBD in the absence of added progesterone), the “Xenopus Oocyte Maturation Assay, Without Progesterone” value is recorded as “Activator”.

Turning to `CC1=CCCC2(C)OC2C2OC(=O)C(CNCCN3CCOCC3)C2CC1` (stereo not shown) [JVM-11, 13-(aminoethylmorpholino)parthenolide], the “Xenopus Oocyte Maturation Assay, With Progesterone” value in data set [4] is “Inhibitor”.
